Measurements: patent US12655116B2, “Substituted isophthalic acid diamides” (Bayer Aktiengesellschaft, priority 2020, dated 2026)

How the values were obtained:
ABUTH [1] = assay: Pre-emergence herbicidal action against ABUTH; type: in vivo, Abutilon theophrasti; conditions: for Pre-emergence action against ABUTH (herbicidal activity): 80 g/ha, scored visually after 3 weeks vs untreated controls (100% = plants have died, 0% = like control plants)
How it was run: (§1)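 Sandy loam pots, seeds covered with soil, then surface-treated with WP or EC formulations at 600–800 l/ha water plus 0.2% wetting agent. Greenhouse, 3 weeks. Percent damage vs untreated controls.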

AMARE [2] = assay: Pre-emergence herbicidal action against AMARE; type: in vivo, Amaranthus retroflexus
How it was run: as §1

AVEFA = assay: Pre-emergence herbicidal action against AVEFA; type: in vivo, Avena fatua; conditions: 80 g/ha, pre-emergence
How it was run: as §1

MATIN = assay: Pre-emergence herbicidal action against MATIN; type: in vivo, Matricaria inodora
How it was run: as §1

STEME [3] = assay: Pre-emergence herbicidal action against STEME; type: in vivo, Stellaria media
Excerpt: Seeds of monocotyledonous and dicotyledonous weed plants and crop plants are laid out in sandy loam soil in wood-fiber pots and covered with soil. The compounds of the invention, formulated in the form of wettable powders (WP) or as emulsion concentrates (EC), are then applied to the surface of the covering soil in the form of an aqueous suspension or emulsion at a water application rate equivalent to 600 to 800 l/ha, with addition of 0.2% wetting agent. After the treatment, the pots are placed in a greenhouse and kept under good growth conditions for the trial plants. The damage to the test plants is scored visually after a test period of 3 weeks by comparison with untreated controls (herbicidal activity in percent (%): 100% activity=the plants have died, 0% activity=like control plants). […] The tables below illustrate, in an illustrative manner, the post-emergence herbicidal action of the compounds of the invention, the herbicidal activity being stated in percent.

VIOTR [4] = assay: Pre-emergence herbicidal action against VIOTR; type: in vivo, Viola tricolor; conditions: dosage 80 g/ha
How it was run: as §1

AMARE [5] = assay: Post-emergence herbicidal action against AMARE; type: in vivo, Amaranthus retroflexus; conditions: 20 g/ha, visual assessment about 3 weeks after treatment, 100% = plants have died, 0% = like control plants
How it was run: (§2)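 Visual % rating (0% = as untreated, 100% = dead) ~3 wk after spraying one-leaf-stage plants grown in sandy loam; WP/EC in water at 600–800 l/ha, 0.2% wetting agent.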

STEME [6] = assay: Post-emergence herbicidal action against STEME; type: in vivo, Stellaria media; conditions: 20 g/ha
Protocol: Seeds of monocotyledonous and dicotyledonous weed and crop plants are laid out in sandy loam soil in wood-fiber pots, covered with soil and cultivated in a greenhouse under good growth conditions. 2 to 3 weeks after sowing, the test plants are treated at the one-leaf stage. The compounds of the invention, formulated in the form of wettable powders (WP) or as emulsion concentrates (EC), are then sprayed onto the green parts of the plants in the form of an aqueous suspension or emulsion at a water application rate equivalent to 600 to 800 l/ha, with addition of 0.2% wetting agent. After the test plants have been left to stand in the greenhouse under optimal growth conditions for about 3 weeks, the action of the preparations is assessed visually in comparison to untreated controls (herbicidal action in percent (%): 100% activity=the plants have died, 0% activity=like control plants). […] The tables below illustrate, in an illustrative manner, the post-emergence herbicidal action of the compounds of the invention, the herbicidal activity being stated in percent.

VIOTR [7] = assay: Post-emergence herbicidal action against VIOTR; type: in vivo, Viola tricolor
How it was run: as §2

SETVI [8] = assay: Pre-emergence herbicidal action against SETVI; type: in vivo, Setaria viridis; conditions: dosage 80 g/ha
How it was run: as §1

DIGSA [9] = assay: Pre-emergence herbicidal action against DIGSA; type: in vivo, Digitaria sanguinalis
How it was run: as §1

ABUTH [10] = assay: Post-emergence herbicidal action against ABUTH; type: in vivo, Abutilon theophrasti; conditions: visual assessment about 3 weeks after treatment vs untreated controls
How it was run: as §2

ECHCG = assay: Post-emergence herbicidal action against ECHCG; type: in vivo, Echinochloa crus-galli; conditions: dosage 20 g/ha
How it was run: as §2

SETVI [11] = assay: Post-emergence herbicidal action against SETVI; type: in vivo, Setaria viridis
How it was run: as §2

DIGSA [12] = assay: Post-emergence herbicidal action against DIGSA; type: in vivo, Digitaria sanguinalis; conditions: 20 g/ha
How it was run: as §2

[13] = 20 g/ha, scored visually after 3 weeks vs untreated controls, 100% = plants have died, 0% = like control plants
[14] = 80 g/ha, scored visually after 3 weeks vs untreated controls (100% = plants have died, 0% = like control plants)

## CCn1nnnc1NC(=O)c1ccc(S(C)(=O)=O)c(C(=O)NC2CC2)c1Cl [Example 2-125]
ABUTH [1]
  Pre-emergence action against ABUTH (herbicidal activity): 100%
AMARE [2]; [13]
  Pre-emergence action against AMARE in %: 80%
AMARE [2]; [14]
  Pre-emergence action against AMARE in %: 100%
AVEFA
  Pre-emergence action against AVEFA in %: 100%
MATIN; dosage 20 g/ha
  Pre-emergence action against MATIN in %: 80%
MATIN; dosage 80 g/ha
  Pre-emergence action against MATIN in %: 100%
STEME [3]; dosage 20 g/ha
  Pre-emergence action against STEME in %: 80%
STEME [3]; dosage 80 g/ha
  Pre-emergence action against STEME in %: 100%
VIOTR [4]
  Pre-emergence action against VIOTR in %: 100%
AMARE [5]
  Post-emergence action at 20 g/ha against AMARE in %: 80%
STEME [6]
  Post-emergence action against STEME in %: 80%
VIOTR [7]; 5 g/ha
  Post-emergence action against VIOTR in %: 100%
VIOTR [7]; 20 g/ha
  Post-emergence action against VIOTR in %: 100%

## NC(=O)c1c(C(F)(F)F)ccc(C(=O)Nc2nnco2)c1Cl [Example 5-253]
ABUTH [1]
  Pre-emergence action against ABUTH (herbicidal activity): 100%
ABUTH [1]; dosage 20 g/ha, scored visually after 3 weeks vs untreated controls, 100% = plants have died, 0% = like control plants
  Pre-emergence action against ABUTH (herbicidal activity in percent): 90%
AMARE [2]; [13]
  Pre-emergence action against AMARE in %: 100%
AMARE [2]; [14]
  Pre-emergence action against AMARE in %: 100%
SETVI [8]
  Pre-emergence action against SETVI in %: 80%
STEME [3]; dosage 80 g/ha
  Pre-emergence action against STEME in %: 90%
VIOTR [4]
  Pre-emergence action against VIOTR in %: 90%
DIGSA [9]; dosage 20 g/ha
  Pre-emergence action against DIGSA in %: 80%
DIGSA [9]; dosage 80 g/ha
  Pre-emergence action against DIGSA in %: 90%
ABUTH [10]; dosage 5 g/ha
  Post-emergence action against ABUTH in %: 90%
ABUTH [10]; dosage 20 g/ha
  Post-emergence action against ABUTH in %: 90%
AMARE [5]
  Post-emergence action at 20 g/ha against AMARE in %: 80%
ECHCG
  Post-emergence action against ECHCG in %: 80%
SETVI [11]; dosage 5 g/ha
  Post-emergence action against SETVI in %: 80%
SETVI [11]; dosage 20 g/ha
  Post-emergence action against SETVI in %: 80%
STEME [6]
  Post-emergence action against STEME in %: 80%
DIGSA [12]
  Post-emergence action against DIGSA: 80%
